# The source made the active and inactive calls.
# Legend:
# Format in all cases: functional
# [1] = microbe, parasite or virus in culture; settings: Mycobacterium tuberculosis
# [2] = Vero cell cytotoxicity, dose response, cytotoxicity control for M. tuberculosis growth inhibitor project, Vero cells, purified and synthesized compounds, set 5 (AID 504909); settings: Mycobacterium tuberculosis
# [3] = A Cell Based Secondary Assay to Explore Cytotoxicity in THP-1 Cells of Compounds that Modulate Mycobacterium tuberculosis in Media Containing Glycerol versus Media without Glycerol (2).
# [4] = Vero cell cytotoxicity, cytotoxicity control for M. tuberculosis inhibitor project, purified and synthesized samples, set 3 (AID 504684)
# [5] = HepG2 cell cytotoxicity, cytotoxicity control, set 4 (AID 504910); settings: Mycobacterium tuberculosis
# [6] = THP-1 cell cytotoxicity, cytotoxicity control, set 4 (AID 504911); settings: Mycobacterium tuberculosis
# [7] = A Cell Based Secondary Assay to Explore Cytotoxicity in HepG2 Cells of Compounds that Modulate Mycobacterium tuberculosis in Media Containing Glycerol versus Media without Glycerol (2).
# [8] = HepG2 cell cytotoxicity, dose response, cytotoxicity control, set 3 (AID 504853); settings: Mycobacterium tuberculosis
# [9] = THP-1 cell cytotoxicity, dose response, cytotoxicity control, set 3 (AID 504852); settings: Mycobacterium tuberculosis
# [10] = Vero cell cytotoxicity, dose response, cytotoxicity control for M. tuberculosis growth inhibitor project, Vero cells, purified and synthesized compounds, set 4 (AID 504854); settings: Mycobacterium tuberculosis
# [11] = biological target: Protein kinase C zeta type (Homo sapiens, UniProt Q05513);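 further: measured as one member of a broad kinase profiling panel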
# [12] = biological target: Protein kinase C delta type (Homo sapiens, UniProt Q05655)
# Protein kinase C delta type, sequence (Q05655 whole entry): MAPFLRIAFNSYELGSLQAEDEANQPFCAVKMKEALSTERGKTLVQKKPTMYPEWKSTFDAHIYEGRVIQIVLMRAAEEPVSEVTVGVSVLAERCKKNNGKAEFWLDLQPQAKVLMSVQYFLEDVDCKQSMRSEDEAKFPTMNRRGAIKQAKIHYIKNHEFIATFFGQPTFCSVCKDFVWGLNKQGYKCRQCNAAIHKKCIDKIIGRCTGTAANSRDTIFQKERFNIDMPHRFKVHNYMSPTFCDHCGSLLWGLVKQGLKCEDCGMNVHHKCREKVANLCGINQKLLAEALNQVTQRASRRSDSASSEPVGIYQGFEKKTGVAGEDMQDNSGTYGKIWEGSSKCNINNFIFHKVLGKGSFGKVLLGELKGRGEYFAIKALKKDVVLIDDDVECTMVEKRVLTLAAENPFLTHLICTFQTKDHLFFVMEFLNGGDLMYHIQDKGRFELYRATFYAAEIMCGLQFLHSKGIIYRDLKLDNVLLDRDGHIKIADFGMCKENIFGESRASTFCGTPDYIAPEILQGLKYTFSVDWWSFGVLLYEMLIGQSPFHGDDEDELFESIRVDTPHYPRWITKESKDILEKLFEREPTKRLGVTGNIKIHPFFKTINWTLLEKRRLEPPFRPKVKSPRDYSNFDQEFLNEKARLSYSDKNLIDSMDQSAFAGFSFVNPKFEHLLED
# [13] = biological target: Serine/threonine-protein kinase pim-1 (Homo sapiens, UniProt P11309)
# Serine/threonine-protein kinase pim-1, sequence (P11309 whole entry): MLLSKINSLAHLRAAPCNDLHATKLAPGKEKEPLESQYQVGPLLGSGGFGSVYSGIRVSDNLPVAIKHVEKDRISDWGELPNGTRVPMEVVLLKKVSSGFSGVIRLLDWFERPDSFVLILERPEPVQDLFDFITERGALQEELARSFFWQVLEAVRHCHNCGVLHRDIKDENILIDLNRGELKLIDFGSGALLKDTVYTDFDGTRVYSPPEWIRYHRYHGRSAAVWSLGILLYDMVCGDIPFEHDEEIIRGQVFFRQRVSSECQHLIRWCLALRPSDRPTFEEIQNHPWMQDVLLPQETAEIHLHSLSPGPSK
# [14] = biological target: Serine/threonine-protein kinase PAK 1 (Homo sapiens, UniProt Q13153)
# Serine/threonine-protein kinase PAK 1, sequence (Q13153 whole entry): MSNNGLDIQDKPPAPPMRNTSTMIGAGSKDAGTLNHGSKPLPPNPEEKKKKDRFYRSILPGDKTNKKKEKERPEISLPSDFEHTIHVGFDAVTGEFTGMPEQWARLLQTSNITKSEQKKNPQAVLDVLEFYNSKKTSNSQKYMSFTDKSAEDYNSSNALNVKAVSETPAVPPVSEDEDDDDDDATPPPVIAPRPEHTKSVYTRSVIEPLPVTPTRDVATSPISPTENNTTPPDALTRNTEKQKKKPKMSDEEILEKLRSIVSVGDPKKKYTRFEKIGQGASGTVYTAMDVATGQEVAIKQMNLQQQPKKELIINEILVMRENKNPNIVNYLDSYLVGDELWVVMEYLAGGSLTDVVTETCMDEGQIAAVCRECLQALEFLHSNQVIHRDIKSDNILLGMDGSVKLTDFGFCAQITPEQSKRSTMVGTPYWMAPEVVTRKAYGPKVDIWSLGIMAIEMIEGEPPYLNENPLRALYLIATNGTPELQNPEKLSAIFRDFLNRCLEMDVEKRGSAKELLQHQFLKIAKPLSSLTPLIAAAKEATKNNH
# [15] = biological target: Protein kinase C gamma type (Homo sapiens, UniProt P05129)
# [16] = biological target: Calcium/calmodulin-dependent protein kinase type 1 (Homo sapiens, UniProt Q14012)
# Calcium/calmodulin-dependent protein kinase type 1, sequence (Q14012 whole entry): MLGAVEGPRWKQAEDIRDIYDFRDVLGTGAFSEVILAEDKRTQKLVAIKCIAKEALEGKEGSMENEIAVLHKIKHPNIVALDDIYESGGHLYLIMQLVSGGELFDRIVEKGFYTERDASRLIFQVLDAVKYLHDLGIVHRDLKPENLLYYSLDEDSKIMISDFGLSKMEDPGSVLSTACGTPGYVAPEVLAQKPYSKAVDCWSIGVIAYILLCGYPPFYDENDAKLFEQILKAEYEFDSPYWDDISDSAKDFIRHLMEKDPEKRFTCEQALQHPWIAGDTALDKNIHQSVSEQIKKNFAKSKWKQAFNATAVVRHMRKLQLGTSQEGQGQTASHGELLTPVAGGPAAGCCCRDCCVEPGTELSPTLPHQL
# [17] = biological target: Serine/threonine-protein kinase MRCK alpha (Homo sapiens, UniProt Q5VT25)
# Serine/threonine-protein kinase MRCK alpha, sequence (Q5VT25 whole entry): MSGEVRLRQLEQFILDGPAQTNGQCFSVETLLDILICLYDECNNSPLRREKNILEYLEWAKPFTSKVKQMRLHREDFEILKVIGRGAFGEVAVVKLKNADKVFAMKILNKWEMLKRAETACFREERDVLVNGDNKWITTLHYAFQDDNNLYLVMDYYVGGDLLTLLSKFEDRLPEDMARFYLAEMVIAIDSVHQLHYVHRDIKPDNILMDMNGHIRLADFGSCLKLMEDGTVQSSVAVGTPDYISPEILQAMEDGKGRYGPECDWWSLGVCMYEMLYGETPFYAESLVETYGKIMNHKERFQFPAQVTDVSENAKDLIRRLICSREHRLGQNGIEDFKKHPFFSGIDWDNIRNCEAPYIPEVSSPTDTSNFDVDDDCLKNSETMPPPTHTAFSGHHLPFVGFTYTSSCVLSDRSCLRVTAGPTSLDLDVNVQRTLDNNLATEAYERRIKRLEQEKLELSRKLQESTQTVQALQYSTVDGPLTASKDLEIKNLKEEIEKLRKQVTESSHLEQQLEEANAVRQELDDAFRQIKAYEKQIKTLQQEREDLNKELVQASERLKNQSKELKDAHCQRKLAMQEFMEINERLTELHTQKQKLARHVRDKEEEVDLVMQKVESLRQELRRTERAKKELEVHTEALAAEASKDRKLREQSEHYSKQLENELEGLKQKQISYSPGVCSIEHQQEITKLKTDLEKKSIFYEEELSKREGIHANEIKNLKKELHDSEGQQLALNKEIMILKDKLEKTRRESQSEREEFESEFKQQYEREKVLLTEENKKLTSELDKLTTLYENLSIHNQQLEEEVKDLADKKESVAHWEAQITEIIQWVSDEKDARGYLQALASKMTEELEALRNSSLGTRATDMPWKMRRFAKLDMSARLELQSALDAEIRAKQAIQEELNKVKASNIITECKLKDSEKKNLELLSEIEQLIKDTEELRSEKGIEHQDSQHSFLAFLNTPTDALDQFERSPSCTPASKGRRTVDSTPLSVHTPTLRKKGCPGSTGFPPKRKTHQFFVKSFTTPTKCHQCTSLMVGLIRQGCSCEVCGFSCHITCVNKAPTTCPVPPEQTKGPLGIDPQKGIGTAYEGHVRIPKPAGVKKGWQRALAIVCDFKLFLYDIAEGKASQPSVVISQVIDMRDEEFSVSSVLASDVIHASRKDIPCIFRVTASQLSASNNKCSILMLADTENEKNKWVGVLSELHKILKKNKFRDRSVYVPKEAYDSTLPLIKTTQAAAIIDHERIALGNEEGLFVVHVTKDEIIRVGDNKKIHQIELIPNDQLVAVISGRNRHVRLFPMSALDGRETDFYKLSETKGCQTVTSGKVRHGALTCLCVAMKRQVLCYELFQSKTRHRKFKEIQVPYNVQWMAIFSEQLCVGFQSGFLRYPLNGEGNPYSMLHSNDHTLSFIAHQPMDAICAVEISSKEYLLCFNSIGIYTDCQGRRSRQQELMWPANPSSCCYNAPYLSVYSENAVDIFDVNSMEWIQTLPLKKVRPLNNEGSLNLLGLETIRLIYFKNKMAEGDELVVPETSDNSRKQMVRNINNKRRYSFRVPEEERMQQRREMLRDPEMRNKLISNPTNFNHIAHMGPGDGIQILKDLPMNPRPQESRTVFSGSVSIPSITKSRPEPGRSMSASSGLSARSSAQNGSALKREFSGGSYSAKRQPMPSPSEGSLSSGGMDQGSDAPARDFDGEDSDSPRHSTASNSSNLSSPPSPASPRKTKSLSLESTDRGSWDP
# [18] = biological target: Tyrosine-protein kinase Lck (Homo sapiens, UniProt P06239);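 further: lck was assayed as one member of a kinase panel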
# [19] = biological target: Mast/stem cell growth factor receptor Kit (Homo sapiens, UniProt P10721);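 further: KIT entry within a kinase panel assay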
# [20] = biological target: Tyrosine-protein kinase Lyn (Homo sapiens, UniProt P07948);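 further: lyn as one member of a kinase panel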
# [21] = biological target: Tyrosine-protein kinase Blk (Homo sapiens, UniProt P51451);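 further: obtained as one member of a kinome-wide kinase assay panel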
# [22] = biological target: Proto-oncogene tyrosine-protein kinase Src (Homo sapiens, UniProt P12931);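 further: SRC entry within a kinome-wide kinase profiling panel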
# [23] = biological target: Receptor-type tyrosine-protein kinase FLT3 (Homo sapiens, UniProt P36888);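 further: FLT3 was tested as one member of a kinome-wide kinase panel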
# [24] = biological target: Tyrosine-protein kinase ABL1 (Homo sapiens, UniProt P00519)
# [25] = biological target: Vascular endothelial growth factor receptor 2 (Homo sapiens, UniProt P35968)
# [26] = biological target: Vascular endothelial growth factor receptor 3 (Homo sapiens, UniProt P35916);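 further: value from a kinome-wide profiling panel, with FLT4 as the panel member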
# [27] = biological target: Tyrosine-protein kinase Fyn (Homo sapiens, UniProt P06241)
# [28] = biological target: Vascular endothelial growth factor receptor 1 (Homo sapiens, UniProt P17948);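 further: measured within a kinome-wide profiling panel, FLT1 as the panel member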
# [29] = biological target: Macrophage colony-stimulating factor 1 receptor (Homo sapiens, UniProt P07333);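 further: value comes from the Navigating the Kinome screening panel, CSF1R member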
# [30] = biological target: Death-associated protein kinase 3 (Homo sapiens, UniProt O43293);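 further: measured as one member of a kinome-wide profiling panel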
# [31] = biological target: Casein kinase I isoform alpha (Homo sapiens, UniProt P48729)
# Casein kinase I isoform alpha, sequence (P48729 whole entry, the tested form may be a part, canonical isoform): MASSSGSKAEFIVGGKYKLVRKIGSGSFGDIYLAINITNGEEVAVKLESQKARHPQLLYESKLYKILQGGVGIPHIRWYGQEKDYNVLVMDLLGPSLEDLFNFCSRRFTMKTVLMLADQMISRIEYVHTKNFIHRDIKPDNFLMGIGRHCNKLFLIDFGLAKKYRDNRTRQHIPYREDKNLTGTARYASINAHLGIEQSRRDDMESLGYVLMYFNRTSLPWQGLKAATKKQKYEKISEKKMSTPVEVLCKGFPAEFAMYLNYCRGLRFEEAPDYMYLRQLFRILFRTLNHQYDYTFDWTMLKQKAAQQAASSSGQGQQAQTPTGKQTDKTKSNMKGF
# LIM domain kinase 1 = LIM domain kinase 1 (Homo sapiens, UniProt P53667); assay: Navigating the Kinome. Panel member name: LIMK1
# LIM domain kinase 1, sequence (P53667 whole entry, the tested form may be a part): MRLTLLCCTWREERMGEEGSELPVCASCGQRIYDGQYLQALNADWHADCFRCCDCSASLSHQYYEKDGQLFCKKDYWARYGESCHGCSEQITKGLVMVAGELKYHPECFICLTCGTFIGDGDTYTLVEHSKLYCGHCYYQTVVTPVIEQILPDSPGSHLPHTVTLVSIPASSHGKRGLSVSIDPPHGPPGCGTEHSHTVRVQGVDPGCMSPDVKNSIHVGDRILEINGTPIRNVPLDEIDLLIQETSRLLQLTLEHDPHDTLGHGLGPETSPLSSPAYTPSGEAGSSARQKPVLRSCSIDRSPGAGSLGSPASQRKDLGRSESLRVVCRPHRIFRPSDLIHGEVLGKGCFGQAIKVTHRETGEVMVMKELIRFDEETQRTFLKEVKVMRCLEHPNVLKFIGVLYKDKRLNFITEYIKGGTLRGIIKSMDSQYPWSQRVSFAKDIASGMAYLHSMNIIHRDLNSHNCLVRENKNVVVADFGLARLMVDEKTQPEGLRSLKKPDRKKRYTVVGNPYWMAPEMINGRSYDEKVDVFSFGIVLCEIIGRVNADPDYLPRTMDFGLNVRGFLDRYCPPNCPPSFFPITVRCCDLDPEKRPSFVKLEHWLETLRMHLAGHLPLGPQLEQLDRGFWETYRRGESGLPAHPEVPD
# Activated CDC42 kinase 1 = Activated CDC42 kinase 1 (Homo sapiens, UniProt Q07912); assay: Navigating the Kinome. Panel member name: ACK1
# [32] = biological target: Dual specificity tyrosine-phosphorylation-regulated kinase 1B (Homo sapiens, UniProt Q9Y463); assay: Navigating the Kinome. Panel member name: DYRK1B
# [33] = biological target: Rho-associated protein kinase 1 (Homo sapiens, UniProt Q13464);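 further: measured within a broad kinome-wide panel profiling many kinases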
# [34] = biological target: Dual specificity protein kinase CLK4 (Homo sapiens, UniProt Q9HAZ1)
# [35] = biological target: T1, Neuropeptides B/W receptor type 1 (Homo sapiens, UniProt P48145); assay: human NPBW1 receptor blockade, IC50 – cell-based, fluorescence, dose response, set 5, late-stage follow-up (AID 588566)
# T1 sequence (P48145 whole entry): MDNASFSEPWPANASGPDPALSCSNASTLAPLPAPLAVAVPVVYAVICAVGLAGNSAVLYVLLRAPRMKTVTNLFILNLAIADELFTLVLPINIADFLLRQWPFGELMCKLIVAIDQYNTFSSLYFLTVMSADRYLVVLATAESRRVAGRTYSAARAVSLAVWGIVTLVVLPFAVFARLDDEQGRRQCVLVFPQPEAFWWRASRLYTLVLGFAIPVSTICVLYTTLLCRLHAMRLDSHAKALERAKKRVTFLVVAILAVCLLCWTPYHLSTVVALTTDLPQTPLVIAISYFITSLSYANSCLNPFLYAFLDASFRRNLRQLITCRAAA
# [36] = biological target: Melanin-concentrating hormone receptor 1 (Homo sapiens, UniProt Q99705); assay: Late-stage fluorescence-based counterscreen for antagonists of the G-protein coupled receptor 7 (GPR7): cell-based dose response assay to identify antagonists of the melanin-concentrating hormone receptor 1 (MCHR1) Set 5.
# Melanin-concentrating hormone receptor 1, sequence (Q99705 whole entry): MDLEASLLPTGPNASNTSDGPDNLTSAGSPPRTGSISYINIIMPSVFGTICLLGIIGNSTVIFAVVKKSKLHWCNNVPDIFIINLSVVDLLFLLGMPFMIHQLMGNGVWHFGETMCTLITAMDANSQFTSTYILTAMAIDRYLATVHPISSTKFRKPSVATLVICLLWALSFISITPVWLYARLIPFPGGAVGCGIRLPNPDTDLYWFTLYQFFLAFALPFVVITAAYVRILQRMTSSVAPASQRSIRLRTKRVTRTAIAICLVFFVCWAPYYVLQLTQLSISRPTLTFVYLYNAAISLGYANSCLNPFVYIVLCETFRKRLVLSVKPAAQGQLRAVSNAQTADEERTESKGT
structure (smiles),measurement,setting,value
CCOc1ccc(-c2cc(C)[n+](CCc3ccc(OC)c(OC)c3)c(-c3ccc(OCC)cc3)c2)cc1.[O-][Cl+3]([O-])([O-])[O-],CC50,[1],> 40 µM (active)
same,CC50,[2],19.7 µM (active)
same,CC50,[3],2.28 µM (active)
same,CC50,[4],18.2 µM (active)
same,CC50,[5],11.9 µM (active)
same,CC50,[6],1.3 µM (active)
same,CC50,[7],9.14 µM (active)
same,CC50,[8],13.1 µM (active)
same,CC50,[9],1.7 µM (active)
same,CC50,[10],21 µM (active)
CC(C)c1ccc2c(c1)c(SC(C)(C)C)c(CC(C)(C)CNCCCO)n2Cc1ccc(Cl)cc1,Ki,[11],7.94 µM (active)
same,Ki,[12],2.51 µM (active)
same,Ki,[13],5.01 µM (active)
same,Ki,[14],2 µM (active)
same,Ki,[15],3.98 µM (active)
same,Ki,[16],7.94 µM (active)
same,Ki,[17],6.31 µM (active)
Cc1ccc(F)c(NC(=O)Nc2ccc(-c3cccc4[nH]nc(N)c34)c(F)c2)c1,Ki,[18],0.501 µM (active)
same,Ki,[19],0.002 µM (active)
same,Ki,[20],0.316 µM (active)
same,Ki,[21],0.251 µM (active)
same,Ki,[22],0.501 µM (active)
same,Ki,[23],0.00316 µM (active)
same,Ki,[24],> 0.631 µM (inactive)
same,Ki,[25],0.0126 µM (active)
same,Ki,[26],0.00398 µM (active)
same,Ki,[27],0.158 µM (active)
same,Ki,[28],0.001 µM (active)
same,Ki,[29],0.00316 µM (active)
Cn1c(N)nc2sc(C(N)=O)cc21,Ki,[30],10 µM (active)
same,Ki,[31],12.6 µM (active)
same,Ki,LIM domain kinase 1,79.4 µM (active)
same,Ki,Activated CDC42 kinase 1,79.4 µM (active)
same,Ki,[32],79.4 µM (active)
same,Ki,[33],39.8 µM (active)
same,Ki,[34],25.1 µM (active)
O=c1c(Oc2ccc(Cl)c(Cl)c2)c(Cl)cnn1Cc1cccc2ccccc12,IC50,[35],> 20 µM (inactive)
same,IC50,[36],> 20 µM (inactive)
